Measured values published in ChEMBL document CHEMBL4837240 (J Med Chem, 2021).

Experiments:
[1] = target: Platelet-derived growth factor receptor beta (Homo sapiens, UniProt P09619); experiment: Inhibition of PDGFRbeta (unknown origin)
[2] = target: Platelet-derived growth factor receptor alpha (Homo sapiens, UniProt P16234); experiment: Inhibition of PDGFRalpha (unknown origin)
Chain of Platelet-derived growth factor receptor alpha (P16234 whole entry): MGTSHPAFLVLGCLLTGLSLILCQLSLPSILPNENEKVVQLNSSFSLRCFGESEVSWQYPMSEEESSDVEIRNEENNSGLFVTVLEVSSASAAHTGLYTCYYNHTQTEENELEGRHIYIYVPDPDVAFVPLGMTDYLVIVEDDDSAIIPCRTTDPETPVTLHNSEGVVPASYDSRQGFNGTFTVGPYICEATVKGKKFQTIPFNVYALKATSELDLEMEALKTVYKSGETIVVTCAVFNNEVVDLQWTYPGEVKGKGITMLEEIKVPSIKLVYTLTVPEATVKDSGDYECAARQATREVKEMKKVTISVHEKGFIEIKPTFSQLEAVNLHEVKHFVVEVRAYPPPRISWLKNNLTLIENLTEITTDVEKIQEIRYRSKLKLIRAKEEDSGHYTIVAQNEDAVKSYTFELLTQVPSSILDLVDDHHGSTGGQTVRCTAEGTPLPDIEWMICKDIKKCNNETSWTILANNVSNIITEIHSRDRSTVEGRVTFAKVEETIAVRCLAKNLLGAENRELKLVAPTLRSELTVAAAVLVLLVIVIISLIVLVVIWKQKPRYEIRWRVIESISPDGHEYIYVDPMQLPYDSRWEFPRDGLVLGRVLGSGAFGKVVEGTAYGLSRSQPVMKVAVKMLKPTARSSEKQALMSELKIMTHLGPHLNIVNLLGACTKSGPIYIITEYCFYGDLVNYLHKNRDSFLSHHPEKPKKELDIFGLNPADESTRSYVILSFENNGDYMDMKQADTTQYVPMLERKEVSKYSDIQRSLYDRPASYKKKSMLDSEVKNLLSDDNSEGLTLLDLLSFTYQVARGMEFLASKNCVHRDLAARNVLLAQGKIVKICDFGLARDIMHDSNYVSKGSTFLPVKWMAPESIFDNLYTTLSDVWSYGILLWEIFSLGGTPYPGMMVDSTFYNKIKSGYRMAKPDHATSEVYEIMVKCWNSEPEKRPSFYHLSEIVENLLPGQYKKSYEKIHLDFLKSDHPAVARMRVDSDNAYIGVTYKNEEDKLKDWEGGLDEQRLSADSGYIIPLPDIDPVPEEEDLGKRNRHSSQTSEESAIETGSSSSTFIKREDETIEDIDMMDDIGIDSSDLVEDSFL

Chain of Platelet-derived growth factor receptor beta (P09619 whole entry): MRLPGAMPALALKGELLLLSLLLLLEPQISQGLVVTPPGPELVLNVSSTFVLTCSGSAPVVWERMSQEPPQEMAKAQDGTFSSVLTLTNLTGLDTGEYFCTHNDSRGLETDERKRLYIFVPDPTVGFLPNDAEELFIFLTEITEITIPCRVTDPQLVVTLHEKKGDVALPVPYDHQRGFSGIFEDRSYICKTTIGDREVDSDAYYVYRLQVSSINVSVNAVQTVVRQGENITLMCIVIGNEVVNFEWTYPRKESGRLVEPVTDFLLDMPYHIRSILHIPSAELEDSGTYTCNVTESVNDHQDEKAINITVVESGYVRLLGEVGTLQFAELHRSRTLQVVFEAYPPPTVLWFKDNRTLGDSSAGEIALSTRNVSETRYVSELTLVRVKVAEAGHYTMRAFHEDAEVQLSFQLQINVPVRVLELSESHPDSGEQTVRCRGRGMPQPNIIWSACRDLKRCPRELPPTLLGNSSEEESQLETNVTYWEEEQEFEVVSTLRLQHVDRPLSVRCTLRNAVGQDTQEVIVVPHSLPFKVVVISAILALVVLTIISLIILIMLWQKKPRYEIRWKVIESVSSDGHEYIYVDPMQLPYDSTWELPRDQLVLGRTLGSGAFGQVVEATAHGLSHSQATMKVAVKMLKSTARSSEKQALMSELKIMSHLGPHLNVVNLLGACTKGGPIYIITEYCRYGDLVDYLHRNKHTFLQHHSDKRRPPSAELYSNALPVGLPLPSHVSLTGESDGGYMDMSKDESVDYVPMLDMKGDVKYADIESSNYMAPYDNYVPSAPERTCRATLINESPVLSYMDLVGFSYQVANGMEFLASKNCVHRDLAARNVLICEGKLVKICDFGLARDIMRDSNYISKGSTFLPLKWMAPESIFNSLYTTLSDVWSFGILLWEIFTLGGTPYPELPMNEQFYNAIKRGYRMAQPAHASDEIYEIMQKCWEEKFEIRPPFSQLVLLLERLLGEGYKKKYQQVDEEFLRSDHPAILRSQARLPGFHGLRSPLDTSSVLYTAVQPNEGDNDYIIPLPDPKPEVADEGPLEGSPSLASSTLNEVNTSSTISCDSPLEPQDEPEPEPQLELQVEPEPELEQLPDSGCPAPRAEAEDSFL

IC50 [1]: 39 nM
IC50 [2]: 51 nM
SMILES: COc1cc2nccc(Oc3ccc(NC(=O)NC4CC4)c(Cl)c3)c2cc1C(N)=O [LENVATINIB]
